This is an account of results in ChEMBL document CHEMBL4177586, “Small molecule adjuvants that suppress both chromosomal and mcr-1 encoded colistin-resistance and amplify colistin efficacy in polymyxin-susceptible bacteria” (Bioorg Med Chem, 2017).

Series [1] concerns Acinetobacter baumannii. The experiment in a line: Potentiation of colistin-induced antimicrobial activity against Acinetobacter baumannii ATCC 17978 expressing mcr1 gene assessed as colistin MIC at 30 uM incubated for overnight duration by CLSI based method (reference value: 16 ug/ml). Type of series: functional.
Series [2] deals with Escherichia coli. The experiment in a line: Potentiation of colistin-induced antimicrobial activity against Escherichia coli YD626 expressing mcr1 gene assessed as reduction in colistin MIC at 60 uM incubated for overnight duration by CLSI based method relative to colistin alone control. The series is classed as functional.
For series [3], the system named is Acinetobacter baumannii. The series is described as follows: Potentiation of colistin-induced antimicrobial activity against colistin-resistant Acinetobacter baumannii PM4119 assessed as colistin MIC at 60 uM incubated for overnight duration by CLSI based method (reference value: 1024 ug/ml). Type of series: functional.
Series [4] relates to Klebsiella pneumoniae. The experiment in a line: Toxicity against Klebsiella pneumoniae BAA2146 incubated for overnight duration by CLSI based method. The series is classed as organism-based. To be noted: in vivo.
The test system of series [5] is Escherichia coli. The experiment in a line: Potentiation of colistin-induced antimicrobial activity against Escherichia coli ATCC 25922 expressing mcr1 gene assessed as reduction in colistin MIC at 60 uM incubated for overnight duration by CLSI based method relative to colistin alone control. The series is classed as functional.
The subject of series [6] is Klebsiella pneumoniae. The series is described as follows: Potentiation of colistin-induced antimicrobial activity against Klebsiella pneumoniae 2210291 assessed as reduction in colistin MIC at 30 uM incubated for overnight duration by CLSI based method relative to colistin alone control. Type of series: functional.
The test system of series [7] is Klebsiella pneumoniae. The series is described as follows: Potentiation of colistin-induced antimicrobial activity against colistin-resistant Klebsiella pneumoniae C3 assessed as reduction in colistin MIC at 30 uM incubated for overnight duration by CLSI based method relative to colistin alone control. The series is classed as functional.
The subject of series [8] is Acinetobacter baumannii. The experiment in a line: Potentiation of colistin-induced antimicrobial activity against colistin-resistant Acinetobacter baumannii PM4112 assessed as colistin MIC at 30 uM incubated for overnight duration by CLSI based method (reference value: 1024 ug/ml). The series is classed as functional.
Series [9] has as its system Klebsiella pneumoniae. The series is described as follows: Potentiation of colistin-induced antimicrobial activity against colistin-resistant Klebsiella pneumoniae C5 assessed as reduction in colistin MIC at 15 uM incubated for overnight duration by CLSI based method relative to colistin alone control. Type of series: functional.
The subject of series [10] is Acinetobacter baumannii. The experiment in a line: Potentiation of colistin-induced antimicrobial activity against colistin-resistant Acinetobacter baumannii PM3941 assessed as colistin MIC at 15 uM incubated for overnight duration by CLSI based method (reference value: 512 ug/ml). The series is classed as functional.
Series [11] deals with Acinetobacter baumannii. The experiment in a line: Potentiation of colistin-induced antimicrobial activity against colistin-resistant Acinetobacter baumannii PM4119 assessed as colistin MIC at 15 uM incubated for overnight duration by CLSI based method (reference value: 1024 ug/ml). Type of series: functional.
Series [12] concerns Escherichia coli. The experiment in a line: Toxicity against Escherichia coli YD626 incubated for overnight duration by CLSI based method. Type of series: organism-based. To be noted: in vivo.
The subject of series [13] is Acinetobacter baumannii. The experiment in a line: Potentiation of colistin-induced antimicrobial activity against colistin-resistant Acinetobacter baumannii PM3942 assessed as reduction in colistin MIC at 15 uM incubated for overnight duration by CLSI based method relative to colistin alone control. Type of series: functional.
In series [14] the test system is Klebsiella pneumoniae. The experiment in a line: Potentiation of colistin-induced antimicrobial activity against colistin-resistant Klebsiella pneumoniae C3 assessed as reduction in colistin MIC at 15 uM incubated for overnight duration by CLSI based method relative to colistin alone control. The series is classed as functional.
In series [15] the test system is Escherichia coli. The series is described as follows: Potentiation of colistin-induced antimicrobial activity against Escherichia coli YD626 expressing mcr1 gene assessed as reduction in colistin MIC at 30 uM incubated for overnight duration by CLSI based method relative to colistin alone control. Type of series: functional.
Series [16] has as its system Acinetobacter baumannii. The series is described as follows: Potentiation of colistin-induced antimicrobial activity against colistin-resistant Acinetobacter baumannii PM4112 assessed as colistin MIC at 60 uM incubated for overnight duration by CLSI based method (reference value: 1024 ug/ml). The series is classed as functional.
In series [17] the test system is Klebsiella pneumoniae. The series is described as follows: Potentiation of colistin-induced antimicrobial activity against colistin-resistant Klebsiella pneumoniae C5 assessed as reduction in colistin MIC at 30 uM incubated for overnight duration by CLSI based method relative to colistin alone control. Type of series: functional.
For series [18], the system named is Acinetobacter baumannii. The series is described as follows: Potentiation of colistin-induced antimicrobial activity against colistin-resistant Acinetobacter baumannii PM3942 assessed as colistin MIC at 15 uM incubated for overnight duration by CLSI based method (reference value: 512 ug/ml). Type of series: functional.
In series [19] the test system is Escherichia coli. The experiment in a line: Potentiation of colistin-induced antimicrobial activity against Escherichia coli ATCC 25922 expressing mcr1 gene assessed as colistin MIC at 30 uM incubated for overnight duration by CLSI based method (reference value: 8 ug/ml). The series is classed as functional.
Series [20] relates to Acinetobacter baumannii. The series is described as follows: Potentiation of colistin-induced antimicrobial activity against Acinetobacter baumannii ATCC 17978 expressing mcr1 gene assessed as reduction in colistin MIC at 60 uM incubated for overnight duration by CLSI based method relative to colistin alone control. Type of series: functional.
Series [21] deals with Acinetobacter baumannii. The experiment in a line: Potentiation of colistin-induced antimicrobial activity against Acinetobacter baumannii SM1536 expressing mcr1 gene assessed as reduction in colistin MIC at 60 uM incubated for overnight duration by CLSI based method relative to colistin alone control. The series is classed as functional.
Series [22] relates to Acinetobacter baumannii. The series is described as follows: Potentiation of colistin-induced antimicrobial activity against colistin-resistant Acinetobacter baumannii PM4112 assessed as colistin MIC at 15 uM incubated for overnight duration by CLSI based method (reference value: 1024 ug/ml). Type of series: functional.
The subject of series [23] is Klebsiella pneumoniae. The series is described as follows: Potentiation of colistin-induced antimicrobial activity against colistin-resistant Klebsiella pneumoniae C5 assessed as colistin MIC at 15 uM incubated for overnight duration by CLSI based method (reference value: 128 ug/ml). The series is classed as functional.
Series [24] relates to Klebsiella pneumoniae. The series is described as follows: Potentiation of colistin-induced antimicrobial activity against colistin-resistant Klebsiella pneumoniae C3 assessed as colistin MIC at 15 uM incubated for overnight duration by CLSI based method (reference value: 512 ug/ml). The series is classed as functional.
Series [25] concerns Klebsiella pneumoniae. The series is described as follows: Potentiation of colistin-induced antimicrobial activity against Klebsiella pneumoniae 2210291 expressing mcr1 gene assessed as reduction in colistin MIC at 60 uM incubated for overnight duration by CLSI based method relative to colistin alone control. Type of series: functional.
In series [26] the test system is Klebsiella pneumoniae. The series is described as follows: Potentiation of colistin-induced antimicrobial activity against Klebsiella pneumoniae 2210291 expressing mcr1 gene assessed as reduction in colistin MIC at 15 uM incubated for overnight duration by CLSI based method relative to colistin alone control. Type of series: functional.
The subject of series [27] is Klebsiella pneumoniae. The series is described as follows: Potentiation of colistin-induced antimicrobial activity against colistin-resistant Klebsiella pneumoniae C3 assessed as colistin MIC at 60 uM incubated for overnight duration by CLSI based method (reference value: 512 ug/ml). The series is classed as functional.
The subject of series [28] is Acinetobacter baumannii. The series is described as follows: Toxicity against multidrug resistant Acinetobacter baumannii 5075 incubated for overnight duration by CLSI based method. The series is classed as organism-based. To be noted: in vivo.
The subject of series [29] is Escherichia coli. The experiment in a line: Toxicity against Escherichia coli YD626 expressing mcr1 gene incubated for overnight duration by CLSI based method. Type of series: organism-based. The following applies: in vivo.
In series [30] the test system is Escherichia coli. The series is described as follows: Toxicity against Escherichia coli ATCC 25922 expressing mcr1 gene incubated for overnight duration by CLSI based method. Type of series: organism-based. The following applies: in vivo.
Series [31] has as its system Acinetobacter baumannii. The experiment in a line: Toxicity against Acinetobacter baumannii ATCC 17978 expressing mcr1 gene incubated for overnight duration by CLSI based method. The series is classed as organism-based. To be noted: in vivo.
For series [32], the system named is Acinetobacter baumannii. The series is described as follows: Toxicity against Acinetobacter baumannii SM1536 expressing mcr1 gene incubated for overnight duration by CLSI based method. Type of series: organism-based. To be noted: in vivo.
Series [33] deals with Klebsiella pneumoniae. The experiment in a line: Toxicity against Klebsiella pneumoniae 2210291 expressing mcr1 gene incubated for overnight duration by CLSI based method. The series is classed as organism-based. The following applies: in vivo.
For series [34], the system named is Acinetobacter baumannii. The experiment in a line: Reduction in lipid A modification in Acinetobacter baumannii ATCC 17978 at 30 uM incubated for 24 hrs by MALDI-TOF mass spectrometry. The series is classed as functional, organism-based.

Molecules are shown by their SMILES. Values after ≈ are worked out from the molar mass of the structure shown. Active and inactive are the calls of the source. The calls are words filed in the database; no cut-off is given here.

For `CCCCCc1ccc(C(=O)NCCn2cc(CCCCCc3cnc(N)n3Cc3ccc(CCCC)cc3)nn2)cc1`, the MIC in series [1] was 0.5 µg/mL; in series [3], 2 µg/mL; in series [4] it was above 200 µM; in series [8], 16 µg/mL; in series [10], 32 µg/mL; in series [11], 16 µg/mL. Further, the MIC in [12] is above 200 µM; in series [16], 8 µg/mL; in series [18], 32 µg/mL; in series [19] it was 0.25 µg/mL; in [22] it was 32 µg/mL; in series [23], 32 µg/mL. The figures for the MIC in series [24] and in series [27] were 64 µg/mL and 8 µg/mL, respectively. The “fold change (FC)” value is above 2048 in series [2]; 256 in series [5]; 64 in series [6]; 32 in series [7]; 4 in series [9]; 16 in series [13]. In addition, the “fold change (FC)” value in series [14] was 8; in series [15] it was above 2048; in series [17], 32; in series [20] it was 64; in series [21], 64; in series [25], 128. In series [26], the “fold change (FC)” value was 16.

As for `CCCCCCc1ccc(-c2cn(CC)c(N)n2)cc1`, the MIC was 0.5 µg/mL in [1]; above 200 µM in series [4]; 200 µM (≈ 54.3 µg/mL) in series [28]; 200 µM (≈ 54.3 µg/mL) in series [12]; 100 µM (≈ 27.1 µg/mL) in series [29]; 50 µM (≈ 13.6 µg/mL) in [30]. Also, the MIC is above 200 µM in series [31], below 0.0039 µg/mL in series [19], above 200 µM in series [32] and above 200 µM in [33]. Besides, the entries for the “fold change (FC)” value in [6], in series [15] and in series [26] were 32, above 2048 and 4, respectively.

Regarding `CCCCCCc1ccc(-c2cn(C(C)C)c(N)n2)cc1`, the MIC in series [1] is 0.5 µg/mL; in series [4] it was above 200 µM; in series [12], 200 µM (≈ 57.1 µg/mL); in [29], above 200 µM; in [30], above 200 µM; in series [31], above 200 µM. Also, the MIC in series [19] was 0.016 µg/mL; in series [32], above 200 µM; in series [33], above 200 µM. Further, the “fold change (FC)” value in series [6] was determined as 64; in series [15], 256; in [26], 2. Besides, the outcome in series [34] was Active.
